Publication PMC1198225, “Novel curcumin- and emodin-related compounds identified by in silico 2D/3D conformer screening induce apoptosis in tumor cells” (BMC Cancer, 2005)
Where two headings read alike, the source gives them in different places.

Key:
[1] = target: T1, recombinant PKD (Homo sapiens, UniProt Q15139); test: [γ-32P]ATP phosphorylation of c-Jun, SDS-PAGE autoradiography, densitometry; assay type: biochemical
T1 construct: gene PRKD1; commercial recombinant kinase (Upstate)
T1 sequence (Q15139 1-912): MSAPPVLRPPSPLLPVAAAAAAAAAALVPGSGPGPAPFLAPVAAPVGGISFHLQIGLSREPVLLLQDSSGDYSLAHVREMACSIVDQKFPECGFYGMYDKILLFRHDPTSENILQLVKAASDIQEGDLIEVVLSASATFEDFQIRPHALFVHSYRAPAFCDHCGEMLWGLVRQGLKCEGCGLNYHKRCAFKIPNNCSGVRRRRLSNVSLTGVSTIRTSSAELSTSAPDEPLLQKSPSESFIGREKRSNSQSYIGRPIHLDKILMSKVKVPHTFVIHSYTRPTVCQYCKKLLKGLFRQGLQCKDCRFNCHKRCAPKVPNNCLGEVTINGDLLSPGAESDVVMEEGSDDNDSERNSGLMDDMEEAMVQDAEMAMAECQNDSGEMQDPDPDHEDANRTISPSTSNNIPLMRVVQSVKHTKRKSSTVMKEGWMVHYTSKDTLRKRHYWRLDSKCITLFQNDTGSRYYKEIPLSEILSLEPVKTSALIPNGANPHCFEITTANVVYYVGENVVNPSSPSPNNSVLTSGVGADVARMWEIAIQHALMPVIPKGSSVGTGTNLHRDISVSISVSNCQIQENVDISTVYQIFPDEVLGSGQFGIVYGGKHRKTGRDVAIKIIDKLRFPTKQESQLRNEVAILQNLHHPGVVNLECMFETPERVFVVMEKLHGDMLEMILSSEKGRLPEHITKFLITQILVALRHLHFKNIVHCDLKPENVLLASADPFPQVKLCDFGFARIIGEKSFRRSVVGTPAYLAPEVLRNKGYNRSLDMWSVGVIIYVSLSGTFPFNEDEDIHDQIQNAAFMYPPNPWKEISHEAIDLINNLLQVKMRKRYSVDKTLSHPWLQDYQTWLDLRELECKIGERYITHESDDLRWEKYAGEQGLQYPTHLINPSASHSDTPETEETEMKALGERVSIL
Description: [γ-32P]ATP phosphorylation of c-Jun, SDS-PAGE autoradiography, densitometry on recombinant PKD

[2] = target: T2, Recombinant CK2 (2α2β) (Homo sapiens, UniProt P68400); test: as above; assay type: biochemical
T2 construct: gene CSNK2A1; commercial recombinant holoenzyme (Calbiochem), alpha2beta2 tetramer; with Casein kinase II subunit beta
T2 sequence (P68400 whole entry): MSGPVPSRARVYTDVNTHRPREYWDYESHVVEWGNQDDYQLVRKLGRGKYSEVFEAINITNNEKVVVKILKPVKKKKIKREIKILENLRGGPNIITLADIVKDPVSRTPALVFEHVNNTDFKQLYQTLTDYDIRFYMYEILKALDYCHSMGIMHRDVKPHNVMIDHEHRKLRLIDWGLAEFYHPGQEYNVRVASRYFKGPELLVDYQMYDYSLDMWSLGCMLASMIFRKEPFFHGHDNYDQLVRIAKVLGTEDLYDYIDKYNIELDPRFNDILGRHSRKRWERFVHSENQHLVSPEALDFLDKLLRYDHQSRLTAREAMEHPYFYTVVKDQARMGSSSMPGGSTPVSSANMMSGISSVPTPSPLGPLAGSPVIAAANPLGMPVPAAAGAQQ
T2 sequence (P67870 2-215 partner): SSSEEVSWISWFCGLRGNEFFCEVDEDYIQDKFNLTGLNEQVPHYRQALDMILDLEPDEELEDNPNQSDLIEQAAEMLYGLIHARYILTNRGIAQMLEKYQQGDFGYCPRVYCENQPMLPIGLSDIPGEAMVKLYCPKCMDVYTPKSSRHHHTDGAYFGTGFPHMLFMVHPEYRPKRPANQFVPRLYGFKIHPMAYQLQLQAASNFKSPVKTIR
Description: [γ-32P]ATP phosphorylation of c-Jun, SDS-PAGE autoradiography, densitometry on Recombinant CK2 (2α2β)

| SMILES | IC50 [1] | IC50 [2] | IC50 ([1]; read-out: IC50 PKD) | IC50 ([2]; read-out: IC50 CK2) |
| --- | --- | --- | --- | --- |
| O=C1C=CC(=O)c2c1c(O)c1ccccc1c2O [BTB14431, 9,10-dihydroxy-1,4-dihydroanthracene-1,4-dione] | 68.9 µM | 6.4 µM |  |  |
| Nc1c2c(nc3cccc(F)c13)OCCC2 [SEW04213, 6-fluoro-3,4-dihydro-2H-pyrano [2,3-b]quinolin-5-amine] | 186 µM | 37.9 µM |  |  |
| Oc1cc(O)cc(/C=C/c2ccc(O)c(O)c2)c1 [Piceatannol] |  |  | 0.5 µM | 2.5 µM |
| O=C1C(=CO)c2ccccc2-c2ccccc21 [JFD03665, 10-(hydroxymethylene)phenanthren-9(10H)-one] | 155 µM | 5.9 µM |  |  |
| O=C(NN=Cc1cc(Cl)cc(Cl)c1O)c1ccccn1 [BTB00363, 2-Pyridinecarboxylic acid, [(3,5-dichloro-2-hydroxyphenyl)methylene]hydrazide] |  |  | 118 µM | 333 µM |
| COc1ccc2c(=O)c3ccccc3n(C)c2c1 [JFD02836, 3-methoxy-10-methyl-9,10-dihydro-9-acridinone] | 39.7 µM | 19.9 µM |  |  |
